{"source": "ChEMBL document CHEMBL1201862", "about": "“PubChem BioAssay data set” (2004)", "key": {"A549": {"test_system": "A549", "assay": "A549 cell toxicity, dose response, cytotoxicity control, plate reader, cherry-pick samples (AID 687028)", "type": "functional, cell-based", "conditions": "Homo sapiens"}, "[1]": {"assay": "NIH3T3 fibroblast cytotoxicity, dose response, cytotoxicity control for PglD inhibitor project, cell-based, CellTiter-Glo luminescence, dry powder (AID 652044)", "type": "functional"}, "[2]": {"assay": "lymphoblastoid cell cytotoxicity, dose response, cytotoxicity control, plate reader, dry powder, set 2 (AID 624367)", "type": "functional"}, "[3]": {"assay": "cytotoxicity in OVCAR8 ovarian cancer cells, dose response, PAX8 project, cell-based, plate reader, dry powder samples (AID 743197)", "type": "functional", "conditions": "OVCAR-8"}, "[4]": {"assay": "non-specific cell cytotoxicity, dose response, cytotoxicity control for PAX8 inhibitor project, plate reader, dry powder samples (AID 743021)", "type": "functional, cell-based"}, "Paired box protein Pax-8": {"biological_target": "Paired box protein Pax-8 (Homo sapiens, UniProt Q06710)", "sequence (Q06710 whole entry)": "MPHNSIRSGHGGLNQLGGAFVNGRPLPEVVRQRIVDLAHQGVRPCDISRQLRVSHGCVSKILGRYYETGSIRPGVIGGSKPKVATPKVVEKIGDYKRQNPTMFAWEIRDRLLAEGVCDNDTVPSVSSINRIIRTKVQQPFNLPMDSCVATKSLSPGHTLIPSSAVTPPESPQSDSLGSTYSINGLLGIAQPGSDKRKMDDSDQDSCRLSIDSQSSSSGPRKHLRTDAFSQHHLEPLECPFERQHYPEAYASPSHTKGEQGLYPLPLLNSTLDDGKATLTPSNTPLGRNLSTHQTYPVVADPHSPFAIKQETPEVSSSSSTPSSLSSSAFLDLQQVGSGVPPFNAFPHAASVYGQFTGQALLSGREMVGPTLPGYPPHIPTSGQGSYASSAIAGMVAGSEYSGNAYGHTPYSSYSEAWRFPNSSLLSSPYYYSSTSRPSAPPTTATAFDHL", "assay": "inhibitors of PAX8-driven TPO luciferase reporter, dose response, RMG-I cells, cherry-pick (AID 687027);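 further: luciferase reporter driven by Pax8 target thyroperoxidase promoter measured by SteadyGlo luminescence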", "type": "functional, cell-based"}, "[5]": {"assay": "NIH:OVCAR-3 ovarian cancer cell cytotoxicity, dose response, PAX8 inhibitor project, plate reader, dry powder samples (AID 743044)", "type": "functional, cell-based"}, "Protein Wnt-3a": {"biological_target": "Protein Wnt-3a (Mus musculus, UniProt P27467)", "sequence (P27467 whole entry)": "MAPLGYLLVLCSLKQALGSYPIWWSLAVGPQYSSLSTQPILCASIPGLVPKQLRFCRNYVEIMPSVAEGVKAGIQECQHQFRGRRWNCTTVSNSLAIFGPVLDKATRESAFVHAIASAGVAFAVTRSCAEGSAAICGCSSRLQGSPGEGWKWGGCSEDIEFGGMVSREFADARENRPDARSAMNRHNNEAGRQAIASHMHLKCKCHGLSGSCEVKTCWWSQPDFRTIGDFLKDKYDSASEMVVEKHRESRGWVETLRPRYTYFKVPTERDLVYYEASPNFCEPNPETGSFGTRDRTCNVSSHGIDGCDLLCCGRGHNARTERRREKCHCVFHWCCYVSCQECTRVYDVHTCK", "assay": "SAR analysis of small molecule antagonists of Gli-SUFU in a Wnt3a luminescent reporter assay.", "type": "functional"}, "[6]": {"assay": "Cytotoxicity screening for potential Inhibitors of Bacterial Capsule Biogenesis (4).", "type": "functional"}, "[7]": {"assay": "HEK293T cytotoxicity, dose response, cytotoxicity control for miR-122 modulator project, cell-based, inhibitor set, cherry-pick, set 2 (AID 720697)", "type": "functional"}, "[8]": {"assay": "HEK293T cytotoxicity, dose response, cytotoxicity control for miR-122 modulator project, cell-based, activator set, cherry-pick (AID 720690);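 further: HEK293T human cells scored for general mammalian cytotoxicity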", "type": "functional"}, "[9]": {"assay": "cytotoxicity dependent on PAX8, dose response, cell-based, plate reader, dry powder (AID 743049)", "type": "functional"}, "[10]": {"assay": "cytotoxicity in COV434 cells, dose response, cytotoxicity control for PAX8 inhibitor project, cell-based, plate reader, dry powder, SA7 (AID 743145)", "type": "functional"}, "[11]": {"assay": "PAX2 cell-based inhibition, dose response, selectivity assay for PAX8 inhibitor project, plate reader, dry powder samples (AID 743048);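 further: HEK293 cells carrying a WT1 promoter luciferase reporter driven by expressed Pax2; potency is for inhibition of Pax2 driven reporter signal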", "type": "functional"}, "[12]": {"assay": "NIH-3T3 fibroblast cytotoxicity, dose response, cytotoxicity control, cell-based, fluorescence, Alamar Blue, secondary assay (AID 2327);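 further: NIH-3T3 mouse fibroblasts cultured with fluconazole at 8 µg/mL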", "type": "functional"}, "[13]": {"assay": "inhibitors of intracellular T. cruzi replication, confirmation, NIH3T3 host cells, beta-gal luminescence (AID 2044);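 further: luminescent beta-galactosidase reporter signal from transgenic T. cruzi replicating inside host cells; inhibitors lower the luminescence signal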", "type": "functional, cell-based"}, "[14]": {"assay": "cytotoxicity toward NIH3T3 fibroblasts, dose response, counter-screen, cell-based, ATP luminescence, mouse fibroblasts (AID 2010);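 further: cells exposed to compound for about 90 hours before reading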", "type": "functional"}, "Cryptococcus neoformans [15]": {"test_system": "Cryptococcus neoformans", "assay": "PubChem AID 686997", "type": "functional, organism-based"}, "HeLa": {"test_system": "HeLa", "assay": "HeLa cell cytotoxicity, dose response, cytotoxicity control, ATP luminescence, cherry-pick samples (AID 687004)", "type": "functional, cell-based", "conditions": "Homo sapiens"}, "Cryptococcus neoformans [16]": {"test_system": "Cryptococcus neoformans", "assay": "Cryptococcus growth inhibition by alamar blue – cell lysis, cherry-picks, replicate tests, mechanism study for C. neoformans antifungal project, dose response (AID 686999)", "type": "functional, organism-based"}, "[17]": {"assay": "C. albicans growth with fluconazole, confirmation, fluorescence, retest (AID 2467)", "type": "functional, cell-based"}, "[18]": {"biological_target": "T1, Probable nicotinate-nucleotide adenylyltransferase (Staphylococcus aureus (strain N315), UniProt P65502)", "T1 sequence (P65502 whole entry)": "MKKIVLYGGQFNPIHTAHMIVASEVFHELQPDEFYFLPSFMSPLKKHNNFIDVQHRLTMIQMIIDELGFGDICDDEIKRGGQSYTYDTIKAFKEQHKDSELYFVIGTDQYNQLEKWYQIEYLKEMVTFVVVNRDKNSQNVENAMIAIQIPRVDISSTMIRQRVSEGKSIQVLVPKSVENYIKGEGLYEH", "type": "functional, Staphylococcus aureus subsp. aureus N315", "conditions": "read-out: IC50_Mean"}, "Leucine aminopeptidase": {"biological_target": "T2, Leucine aminopeptidase (Plasmodium falciparum 3D7, UniProt Q8IL11)", "T2 sequence (Q8IL11 whole entry)": "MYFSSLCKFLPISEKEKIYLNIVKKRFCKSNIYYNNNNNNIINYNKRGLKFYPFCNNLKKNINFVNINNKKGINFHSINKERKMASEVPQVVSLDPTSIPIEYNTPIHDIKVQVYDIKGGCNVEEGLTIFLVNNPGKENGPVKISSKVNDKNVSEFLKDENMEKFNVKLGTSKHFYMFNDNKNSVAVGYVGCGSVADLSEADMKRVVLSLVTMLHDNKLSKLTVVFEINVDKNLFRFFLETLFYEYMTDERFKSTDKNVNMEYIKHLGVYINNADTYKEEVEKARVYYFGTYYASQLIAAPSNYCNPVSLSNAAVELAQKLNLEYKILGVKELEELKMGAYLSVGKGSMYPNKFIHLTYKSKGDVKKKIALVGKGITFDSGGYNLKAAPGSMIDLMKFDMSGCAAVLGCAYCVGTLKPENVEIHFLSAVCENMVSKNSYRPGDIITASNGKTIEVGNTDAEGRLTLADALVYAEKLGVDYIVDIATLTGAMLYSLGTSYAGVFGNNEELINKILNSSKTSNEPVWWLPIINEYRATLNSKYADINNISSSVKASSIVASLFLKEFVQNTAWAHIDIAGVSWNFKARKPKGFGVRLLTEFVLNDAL", "assay": "P. falciparum M17LAP inhibitors, primary screen, biochemical, fluorogenic H-Leu-NHMec substrate, 1536-well (AID 1619)", "type": "functional"}, "[19]": {"biological_target": "T1, Probable nicotinate-nucleotide adenylyltransferase", "type": "functional, Staphylococcus aureus subsp. aureus N315"}, "cells": {"assay": "cells", "type": "functional, cell-based"}}, "note": "The source made the active and inactive calls.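 Wherever IC50 Mean is given: confirmatory dose-response retesting of NadD inhibitor hits first found in an ultra-high-throughput screen.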"}
{"smiles": "Cc1ccc2ccc(C(Nc3ccccc3)c3ccccc3)c(O)c2n1", "note": "(stereo not given)", "values": [{"measurement": "AC50", "setting": "A549", "value": "17.9 µM (active)"}]}
{"smiles": "O=C(C[C@@H]1CC[C@H]2[C@@H](COC[C@H](O)CN2C(=O)Nc2cccc(F)c2)O1)NCc1ccccc1F", "values": [{"measurement": "AC50", "setting": "[1]", "value": "> 52 µM (inactive)"}]}
{"smiles": "O=C(Nc1ccc(C(F)(F)F)cc1)Nc1ccc2c(c1)[C@@H]1C[C@H](CC(=O)N3CCc4ccccc4C3)O[C@@H](CO)[C@@H]1O2", "values": [{"measurement": "AbsAC35", "setting": "[2]", "value": 85.24, "unit": "µM"}]}
{"smiles": "C[C@@H]1CCCCO[C@@H](CN(C)C(=O)c2ccccc2)[C@@H](C)CN([C@@H](C)CO)C(=O)c2cc(NC(=O)Nc3ccc(C(F)(F)F)cc3)ccc2O1", "values": [{"measurement": "AC50", "setting": "[3]", "value": "> 70 µM (inactive)"}, {"measurement": "AC50", "setting": "[4]", "value": "44.3 µM (active)"}, {"measurement": "AC50", "setting": "Paired box protein Pax-8", "value": "8.77 µM (active)"}, {"measurement": "AC50", "setting": "[5]", "value": "7.75 µM (active)"}]}
{"smiles": "O=C(Nc1cc(N2CCCC2)ncn1)c1ccccc1F", "values": [{"measurement": "IC50", "setting": "Protein Wnt-3a", "value": "0.696 µM (active)"}]}
{"smiles": "CC(C)(C)OC(=O)Nc1nc2ccc(C(=O)Nc3ccnc(Cl)c3)cc2s1", "values": [{"measurement": "CC50", "setting": "[6]", "value": "> 300 µM (inactive)"}]}
{"smiles": "C[C@@H]1CN([C@@H](C)CO)S(=O)(=O)c2ccc(-c3cncnc3)cc2O[C@@H]1CN(C)Cc1ccc(Oc2ccccc2)cc1", "values": [{"measurement": "AC50", "setting": "[7]", "value": "22.7 µM (active)"}, {"measurement": "AC50", "setting": "[8]", "value": "24.9 µM (active)"}]}
{"smiles": "COCC(=O)N1[C@H](CO)[C@H](c2ccc(-c3cccnc3)cc2)[C@@H]1C#N", "values": [{"measurement": "AC50", "setting": "[9]", "value": "> 70 µM (inactive)"}, {"measurement": "AC50", "setting": "[10]", "value": "0.00824 µM (active)"}, {"measurement": "AC50", "setting": "[11]", "value": "> 32 µM (inactive)"}]}
{"smiles": "NC(=S)N/N=C/c1ccc(-c2cc(Cl)ccc2Cl)o1", "values": [{"measurement": "EC50", "setting": "[12]", "value": "15.4 µM (active)"}, {"measurement": "EC50", "setting": "[13]", "value": "0.627 µM (active)"}, {"measurement": "EC50", "setting": "[14]", "value": "> 60 µM (not active)"}, {"measurement": "AC50", "setting": "Cryptococcus neoformans [15]", "value": "12.2 µM (active)"}, {"measurement": "AC50", "setting": "HeLa", "value": "17.6 µM (active)"}, {"measurement": "AC50", "setting": "Cryptococcus neoformans [16]", "value": "18.1 µM (active)"}, {"measurement": "EC50", "setting": "[17]", "value": "4.47 µM (active)"}]}
{"smiles": "CCc1nnc(NS(=O)(=O)c2ccc(/N=C/c3c(C)nn(-c4ccc(C)c(C)c4)c3O)cc2)s1", "values": [{"measurement": "IC50", "setting": "[18]", "value": "16.5 µM (active)"}, {"measurement": "IC50", "setting": "Leucine aminopeptidase", "value": "14.4 µM (active)"}, {"measurement": "IC50", "setting": "[19]", "value": "4.55 µM (active)"}, {"measurement": "IC50", "setting": "cells", "value": "70 µM (inactive)"}]}
